Experimental data from US11839614B2, “Methods for treating or mitigating cardiotoxicity characterized by inhibition of adenosine A2 signaling and/or adenosine A2 receptor expression” (INTRA-CELLULAR THERAPIES, INC., priority 2018, dated 2023).
Counter-ions that a name gives are not always drawn.

What was measured:
myocyte cAMP = assay: Whole cell cAMP in isolated rabbit myocytes; assay type: cell-based
Description: This is consistent with prior studies showing locally generated cAMP from β-AR and its modulation by PDE3 occur in local subcellular domains that are not easily detected in whole cell lysates32.

adult rabbit myocytes = assay: Contraction and calcium transients in isolated rabbit cardiomyocytes; assay type: cell-based; conditions: for decay kinetics / relaxation times / peak-Ca2+ transient / percent sarcomere shortening: agent alone: Cil 1 μM, Compound 1 1 μM, Iso non-saturating dose
Experimental: To test whether PDE1 inhibition directly impacts cardiomyocyte contraction and calcium transients, studies are carried out on normal adult rabbit myocytes. […] As PDE1 requires sufficient cAMP and Ca^2+ to be impactful, a dose response was performed to the adenylate cyclase activator, forskolin (FSK) to determine the lowest dose producing a modest but significant inotropic effect (1 μM).
Rabbit myocytes were isolated to determine the effect of PDE1 inhibition on cardiomyocyte contraction and whole cell Ca2+ transients, and to compare the results to those with a PDE3 inhibitor, cilostamide (Cil, 1 μM).
An alternative approach to augmenting cAMP independent of […] is to directly stimulate adenylate cyclase using forskolin (Fsk). A dose response study was carried out to identify a non-saturating Fsk dose that still generated significant inotropic effects (1 μM).

[1] = system: normal and failing canine hearts; assay: Conscious dog pressure-volume hemodynamic analysis, normal and failing hearts; assay type: in vivo; conditions: dobutamine 10 μg/kg/min alone
Description: Dogs are studied in the conscious state before and after inducing dilated cardiomyopathy by tachypacing for two weeks at 200 bpm. […]
Load insensitive indexes of contractility (dP/dtmax/IP and PRSW) increased.

plasma cAMP and cGMP = assay: Plasma cAMP and cGMP by ELISA in dogs; assay type: in vivo, dog
Experimental: Blood plasma is obtained from these animals, and cAMP and cGMP are assayed by ELISA.

[2] = system: rabbit heart and vasculature; assay: Anesthetized rabbit pressure-volume hemodynamics with or without esmolol or MRS-1754; assay type: in vivo; conditions: for effect of blocker on Compound 1 responses: atrially paced, fixed heart rate; for impact of inhibitor pre-treatment alone on cardiovascular hemodynamics: rabbit, in vivo
Description: Cyclic AMP is generated largely by transmembrane adenylyl cyclases activated via stimulatory G protein (Gs), with β-adrenergic, adenosine (primarily A2B), glucagon, prostanoids, histamine, and serotonin all coupling to Gs in cardiomyocytes. The present studies focus on beta-adrenergic and adenosine receptors, and for the latter, concentrated on the A2B receptor, which has been reported to directly stimulate cAMP-dependent contractility. […] Relaxation changes are also modest with LV preload (end-diastolic and volume) unaltered; however, the combined vasodilator-inotropic response doubled ventricular/arterial coupling ratio, Ees/Ea.
New Zealand White rabbits (male, 2-3 kg) are sedated with 35 mg/kg ketamine and 5 mg/kg xylazine, intubated and ventilated (Model 683, Harvard Apparatus, Holliston, Mass.), with anesthesia maintained with isoflurane inhalation (1-2%). A pressure-volume catheter (SPR-894, Millar, Inc., Houston, Tex.) is inserted via the common carotid artery and advanced to the LV apex, and a 2-Fr pacing catheter is positioned in the right atrium via the right jugular vein to provide atrial pacing. […] The parallel conductance is determined by the hypertonic saline injection method. Rabbits are infused with 6% hetastarch in saline during the procedure to stabilize arterial pressure.

[3] = agent added to non-saturating Iso
[4] = agent alone: Iso 50 nM, Compound 1 up to 1 mM, IBMX 100 μM

## CN(C(=O)CCCOc1ccc2[nH]c(=O)ccc2c1)C1CCCCC1 [Cil, cilostamide]
Myocyte cAMP; agent added to Fsk
  whole cell cAMP: unaltered
Myocyte cAMP; agent alone
  whole cell cAMP: did not measurably increase whole cell cAMP
Myocyte cAMP; agent combined with Iso
  whole cell cAMP: did not measurably increase whole cell cAMP
Adult rabbit myocytes; agent added to Fsk 1 μM
  Ca2+ transient decay rate: faster decay of the Ca2+ transient
  peak Ca2+ transient: increase
  sarcomere shortening: increase in sarcomere shortening
Adult rabbit myocytes; [3]
  peak-Ca2+: remained elevated over baseline
  sarcomere shortening: further increased sarcomere shortening
Adult rabbit myocytes
  decay kinetics / relaxation times: accelerated
  peak-Ca2+ transient: rose
  percent sarcomere shortening: rose

## CC(CCc1ccc(O)cc1)NCCc1ccc(O)c(O)c1 (centres unmarked) [Dobutamine, dobutamine, reference compound]
[1]
  PV loop area (stroke work): increased PV loop area
Plasma cAMP and cGMP; HF dogs, single drugs
  plasma cAMP: not significantly changed
Plasma cAMP and cGMP; all conditions, normal and HF models
  plasma cGMP: remains unchanged
Plasma cAMP and cGMP; normal dogs
  plasma cAMP: augmented plasma cAMP

## CC(C)Cn1c(=O)n(C)c(=O)c2[nH]cnc21 [IBMX]
Adult rabbit myocytes; [4]
  contraction/calcium decay time or rates: increased
  peak Ca2+ transient: did not alter peak calcium transients
  sarcomere shortening: increased shortening

## CCCn1c(=O)c2[nH]c(-c3ccc(OCC(=O)Nc4ccc(C#N)cc4)cc3)nc2n(CCC)c1=O [MRS-1754, reference compound]
[2]; MRS-1754 1 mg/kg iv before Compound 1 0.1 mg/kg
  effect of blocker on cardiovascular responses to Compound 1 (heart rate, contractility, vasodilation): eliminated all of the cardiovascular responses to Compound 1
[2]
  effect of blocker on Compound 1 responses: fully blocked
  impact of inhibitor pre-treatment alone on cardiovascular hemodynamics: Neither inhibitor pre-treatment alone has a significant impact

## COC(=O)CCc1ccc(OCC(O)CNC(C)C)cc1 (centres unmarked) [esmolol, esmolol HCl, reference compound]
[2]
  effect of blocker on Compound 1 responses: unaltered
  impact of inhibitor pre-treatment alone on cardiovascular hemodynamics: Neither inhibitor pre-treatment alone has a significant impact
[2]; esmolol 0.5 mg/kg bolus then 0.05 mg/kg/min
  block of cardiac responses to 10 μg/kg/min dobutamine: effectively blocked

## C=C[C@@]1(C)CC(=O)[C@]2(O)[C@@]3(C)[C@@H](O)CCC(C)(C)[C@@H]3[C@H](O)[C@H](OC(C)=O)[C@@]2(C)O1 [forskolin]
Adult rabbit myocytes; dose response
  lowest (non-saturating) dose producing a modest but significant inotropic effect: 1 µM

## CC(C)NCC(O)c1ccc(O)c(O)c1 (centres unmarked) [isoproterenol]
Myocyte cAMP; agent alone
  whole cell cAMP: did not measurably increase whole cell cAMP
Adult rabbit myocytes
  decay kinetics / relaxation times: quickened relaxation times
  peak-Ca2+ transient: increased
  percent sarcomere shortening: increased
Adult rabbit myocytes; [4]
  contraction/calcium decay time or rates: accelerates the decay time of both
  peak Ca2+ transient: increases
  sarcomere shortening: increases
